According to patent publication US20260373155A1, “TRANSDERMALLY- OR TOPICALLY-ADMINISTERED COMPOSITION COMPRISING THIENOPYRIDINE COMPOUND” (GY LIFE SCIENCES CO., LTD., priority 2022, published 2026):
One block for each compound: values may come before it.

Tests used:
[1] = Comparison of L-menthol with other known transdermal permeation enhancers (AUC∞ of the thienopyridine compound); type: in vivo; conditions: AUC∞ after transdermal administration, component replaced with water, mice, FIG. 3
Protocol: Other reported transdermal permeation enhancers were tested to see how they affect the skin permeability of the thienopyridine compound.
Variants of the Example 1 formulation were created by removing one of the following and replacing it with water: propylene glycol, glycerol, or urea. Each variant was administered transdermally to mice (n=3) as in Experimental Example 2. Blood samples were analyzed to obtain plasma concentration-time profiles and the resulting average AUC∞±SD. These were compared by bar chart (FIG. 3) with the Example 1 formulation (with L-menthol) and Comparative Example 1 (without L-menthol). The asterisk (*) indicates p<0.01 (t-test).

[2] = Transdermal potential: plasma pharmacokinetics via topical, intravenous and intradermal routes in rats; type: in vivo, SD rats; conditions: 5 mpk; for AUC(0-inf) / AUC(0-t) at 24 h / Cmax / Tmax / half-life: rat, 5 mg/kg, male SD rats, phosphate salt form, plasma
Protocol: An experiment was conducted to evaluate the transdermal potential of the thienopyridine compound (API) using 7-week-old male SD rats. Specifically, the same 5 mpk dose of the thienopyridine compound was administered via three routes-transdermal (topical), intravenous (tail vein), and intradermal injections-simultaneously, following the compositions and methods shown in Table 1 (n=3 per group). The plasma concentration of the thienopyridine compound and pharmacokinetic parameters were then measured for each route.
In more detail, in each formulation the thienopyridine compound was used in phosphate salt form (compound:phosphoric acid=1:2.5 equivalents) at a concentration of 0.3 wt % in the carrier solution. For the transdermal formulation, the thienopyridine compound was first dissolved in a carrier solution lacking 3% […]™ EG, and then 3% […]™ EG (Seppic, France) was added with stirring for 3 minutes to impart viscosity. Blood samples were collected via the carotid artery at 0 (negative control sample), 0.03, 0.16, 0.25, 0.5, 1, 2, 4, 6, and 24 hours post-administration, placed into heparinized tubes, and centrifuged (3,000 rpm, 10 minutes). Plasma (13.5 μl) was stored at −20 °C until analyzed by LC-MS/MS within a week. Plasma concentrations of the thienopyridine compound were determined by LC-MS/MS. Each 13.5 μl plasma sample was mixed with 60 μl of acetonitrile containing 1 μg/mL of an internal standard, vortexed, and centrifuged at 6,000 rpm for 15 minutes; 50 μl of the supernatant was then mixed with 50 μl of distilled water for LC-MS/MS analysis. The LC-MS/MS system was an Agilent 1200 Series HPLC (Agilent, Santa Clara, CA) coupled with an AP13200® triple-quadrupole mass spectrometer (Applied Biosystems-SCIEX, Concord, Canada). The mobile phase was 0.1% formic acid in water (A) and acetonitrile (B). Chromatographic separation was achieved on a reverse-phase Atlantis™ T3 column (100×2.1 mm, 3 μm; Waters, Milford, MA) at a flow rate of 0.25 ml/min under a gradient. The LOQ was 9.7 ng/ml, and the correlation coefficient (R) for calibration was 0.997.
Pharmacokinetic parameters were determined by noncompartmental analysis using WinNonlin® (Pharsight, Mountain View, CA). The maximum plasma concentration (Cmax) was taken directly from the plasma concentration-time profile, and time to reach Cmax (Tmax) was recorded. The area under the concentration-time curve from time zero to the last time point (AUC0-24) was calculated by the trapezoidal rule […]. AUC∞ was calculated by summing AUC0-24 and AUC24-∞, the latter obtained by dividing the 24-hour plasma concentration by the terminal elimination rate.

[3] = system: Src/DDR tyrosine kinase family; conditions: see U.S. Pat. No. 9,062,066; cited from earlier work
[4] = Sun X et al. 2012; cited from earlier work
[5] = ultraviolet light; Korean Patent No. 10-1478302; cited from earlier work
[6] = Ju Yong Song 2016 thesis; cited from earlier work
[7] = Ju Yong Song 2016 thesis; cited from earlier work; remark: listed apart in the source
[8] = Fowler A J et al. 2019; US 2019-0262323; cited from earlier work
[9] = Solution stability of the hydrochloride salt with solubilizer or thickener (days without precipitation); type: physicochemical; conditions: 0.3% hydrochloride salt, aqueous phase, room temperature
Protocol: This experiment examined whether a solubilizer or thickener could maintain a stable solution (without solid precipitation due to self-aggregation) of the hydrochloride salt of the thienopyridine compound of Chemical Formula 1 in an aqueous phase at room temperature. Specifically, 0.3% of the hydrochloride salt was dissolved in a water-phase solution composed of water, PEG400, glycerol, propylene glycol, hexanediol, and polysorbate 60 (as per Table 3). It was heated at 80 °C with stirring for 10 minutes for complete dissolution, then cooled to room temperature. 1% (w/w) of urea or polyvinylpyrrolidone (PVP K-30) was tested as a solubilizer by being added to the solution.
Additionally, 2% (w/w) of xanthan gum, carboxymethyl cellulose, or PEG-240/HDI copolymer bis-decyltetradeceth-20 ether was tested as a thickener. Various combinations were also tested. The day on which precipitation first appeared was noted by visual or microscopic observation. The maximum days with no precipitation was recorded. […] Confirmatory mass spectrometry and ^1H-NMR indicated the precipitate was the compound of Chemical Formula 1.

[10] = topical or ocular, topical application

effect on transdermal permeability of the thienopyridine compound [1]: virtually no effect
Structure (SMILES): CC(O)CO (stereo not drawn) [propylene glycol]

effect on transdermal permeability of the thienopyridine compound [1]: virtually no effect
Structure (SMILES): NC(N)=O [urea]

AUC(0-inf) ([2]; intradermal injection): 446 ± 160 ng·h/mL | AUC(0-t) at 24 h ([2]; intradermal injection): 315 ± 197 ng·h/mL | Cmax ([2]; intradermal injection): 40.3 ± 15.7 ng/mL | Tmax ([2]; intradermal injection): 0.65 ± 0.335 h | half-life ([2]; intradermal injection): 499 ± 189 min | AUC(0-inf) ([2]; intravenous (iv)): 619 ± 219 ng·h/mL | AUC(0-t) at 24 h ([2]; intravenous (iv)): 514 ± 222 ng·h/mL | half-life ([2]; intravenous (iv)): 164 ± 109 min | AUC(0-inf) [2, 10]: 49.4 ± 37.7 ng·h/mL | AUC(0-t) at 24 h [2, 10]: 41.7 ± 8.84 ng·h/mL | Cmax [2, 10]: 10.4 ± 13.5 ng/mL | Tmax [2, 10]: 1.38 ± 1.75 h | half-life [2, 10]: 328 ± 137 min | transdermal absorption relative to intravenous or intradermal administration ([2]; topical vs intravenous or intradermal, rats): about one-tenth
Structure (SMILES): Oc1cccc(Nc2ccnc3cc(-c4cccc(CN5CCOCC5)c4)sc23)c1 [thienopyridine compound, 3-[[2-[3-(4-morpholinylmethyl)phenyl]thieno[3,2-b]pyridin-7-yl]amino]phenol]
inhibition of kinase activity [3]: strongly inhibits | anti-inflammatory and anti-scarring activities, repair of damaged skin tissue [4]: exhibits anti-inflammatory and anti-scarring activities and promotes the repair of damaged skin tissue | anti-aging activity, wrinkle formation [5]: suppresses wrinkle formation | suppression of histamine-induced pruritus [6]: suppresses histamine-induced pruritus | suppression of SLIGRL-NH2-induced pruritus [7]: effectively suppresses | progression of degenerative brain diseases [8]: suppress the progression of degenerative brain diseases

Second part, the compound before the results:

Structure (SMILES): OCC(O)CO [glycerol]
effect on transdermal permeability of the thienopyridine compound [1]: virtually no effect

Structure (SMILES): CC1CCC(C(C)C)C(O)C1 (stereo not drawn) [menthol]
effect on transdermal permeability of the thienopyridine compound [1]: uniquely strong enhancing effect

Structure (SMILES): Oc1cccc(Nc2ccnc3cc(-c4cccc(CN5CCOCC5)c4)sc23)c1
maximum days with no precipitation ([9]; thickener 2% PEG-240/HDI copolymer bis-decyltetradeceth-20 ether, solubilizer 1% polyvinylpyrrolidone (k30)): >7 days | maximum days with no precipitation ([9]; thickener 2% PEG-240/HDI copolymer bis-decyltetradeceth-20 ether, solubilizer 1% urea): 6 days | maximum days with no precipitation ([9]; thickener 2% PEG-240/HDI copolymer bis-decyltetradeceth-20 ether, solubilizer none): 6 days | maximum days with no precipitation ([9]; thickener 2% carboxymethyl cellulose, solubilizer 1% polyvinylpyrrolidone (k30)): 1 days | maximum days with no precipitation ([9]; thickener 2% carboxymethyl cellulose, solubilizer 1% urea): 1 days | maximum days with no precipitation ([9]; thickener 2% carboxymethyl cellulose, solubilizer none): 1 days | maximum days with no precipitation ([9]; thickener 2% xanthan gum, solubilizer 1% polyvinylpyrrolidone (k30)): 1 days | maximum days with no precipitation ([9]; thickener 2% xanthan gum, solubilizer 1% urea): 1 days | maximum days with no precipitation ([9]; thickener 2% xanthan gum, solubilizer none): 1 days | maximum days with no precipitation ([9]; thickener none, solubilizer 1% polyvinylpyrrolidone (k30)): 5 days | maximum days with no precipitation ([9]; thickener none, solubilizer 1% urea): 1 days | maximum days with no precipitation ([9]; thickener none, solubilizer none): 1 days
